Like-named read-outs stand apart in the source and are kept apart here. A value given as a limit tells only on which side of the number the result lay.

One data set deals with HIV. The settings on record: prior art statement; cited from earlier work.
For data set [1] the following is noted: prior art statement; cited from earlier work.
The conditions of data set [2]: preliminary results of Biochemical Pharmacology 38, 869-74 (1989); cited from earlier work.
The subject of another data set is HIV (LAV Strain). Description: Antiviral activity in HIV-infected A301 (Alex) cells, read out by reverse transcriptase level. Type of data set: cell-based. The settings on record: Human immunodeficiency virus 1, 168 h. As for the experimental part: This procedure is a modification of a procedure initially described by Chen et al., Biochemical Pharmacology, 36 (24), 4361-4362 (1987).
A301 (Alex) cells are pre-infected with a constant amount of HIV (LAV Strain) for three hours at 37°C. Test compounds and AZT (control) are added to the infected cells in two, three or five-fold dilutions, diluted out four places for screening and eight places for confirmation in 96 well plates. Unless mentioned the highest concentration is […]. The test plates are incubated in CO₂ at 37°C for seven days (incubation time depends on virus pool titer) with a partial medium/sample change on day four of the incubation period. Uninfected A301 cells with sample dilutions, but without virus, are used to evaluate cytotoxicity.
Reverse transcriptase levels are assayed at the end of the incubation period as follows, to determine if antiviral activity is present.
[…] of medium from the HIV infected Alex cells is added to […] of 3.2% Triton X-100. This solution is incubeted for 30 minutes at 37°C, then […] of 4X assay mix is added to it. The 4X assay mix contains [³H]TTP, poly(A).oligo(dT), potassium chloride, magnesium chloride, dithiothreitol, and Tris-HCl buffer, pH8.0. […] The radioactivity remaining on the 3MM paper is quantitated by scintillation counter, and corresponds to reverse transcriptase level.

Data set [3] can be described thus: Cytotoxicity in uninfected A301 cells. Type of data set: cell-based. As to conditions: human; uninfected A301 cells with sample dilutions, without virus; read-out: Cell Toxicity Partial. As for the experimental part:
(§1) A301 (Alex) cells are pre-infected with a constant amount of HIV (LAV Strain) for three hours at 37°C. […] Unless mentioned the highest concentration is 200 mM. The test plates are incubated in CO₂ at 37°C for seven days (incubation time depends on virus pool titer) with a partial medium/sample change on day four of the incubation period. Uninfected A301 cells with sample dilutions, but without virus, are used to evaluate cytotoxicity.

A further data set deals with Uninfected A301 cells. As to the kind of experiment: Cytotoxicity in uninfected A301 cells. The class given is cell-based. As to conditions: uninfected A301 cells with sample dilutions, without virus. As for the experimental part: as §1

For the compound `[N-]=[N+]=N[C@]1(CO)O[C@@H](n2ccc(N)nc2=O)[C@H](O)[C@@H]1O` [4'-azidocytidine], the anti-HIV activity entry in the data set on HIV is recorded as “devoid of anti-HIV activity”. Also, the cytotoxicity entry in data set [1] was “cytotoxic”.
For the compound `[N-]=[N+]=N[C@H]1C[C@H](n2cc(Cl)c(=O)[nH]c2=O)O[C@@H]1CO` [5-chloro-substituted-3'-azido-2',3'-dideoxyuridine], in data set [2], the antiviral activity entry is reported as “potent antiviral activity”.
For the compound `O=c1[nH]c(=O)n([C@H]2C[C@H](F)[C@@H](CO)O2)cc1Cl` [5-chloro-substituted-3'-fluoro-2',3'-dideoxyuridine], the antiviral activity entry in data set [2] is reported as “potent antiviral activity”.
Broadly, the EC50 is the concentration at which the effect is half-maximal. With `[N-]=[N+]=N[C@]1(CO)O[C@@H](n2cc(Cl)c(=O)[nH]c2=O)C[C@@H]1O` [A, 1-(4-azido-2-deoxy-β-D-erythro-pentofuranosyl)-5-chloro-2,4-dioxopyrimidine], the EC50 with HIV (LAV Strain) (A301 (Alex) cells pre-infected with HIV (LAV Strain), seven days incubation, reverse transcriptase level, read-out: EC50) was 0.056 µM. Also, in data set [3], the MCC at 168 h stood at 1 mM. The “Cell Toxicity Complete” value with Uninfected A301 cells is more than 1000 µM.
Turning to `Cc1cn([C@H]2C[C@H](N=[N+]=[N-])[C@@H](CO)O2)c(=O)[nH]c1=O` [control, 3'-azidothymidine], the EC50 with HIV (LAV Strain) is 0.005 µM. Also, in data set [3], the MCC at 168 h was more than 0.04 mM. Further, the “Cell Toxicity Complete” value with Uninfected A301 cells was more than 40 µM.

The record behind these values is EP0457326A1, “Antiviral agents” (SYNTEX (U.S.A.) INC., priority 1990, dated 1991).
